Key:
[1] = test system: IL-4 production; experiment: Measurement of IL-4 production inhibiting ability (KLH-stimulated lymphocytes, ELISA); format: cell-based; conditions: lymph node lymphocytes of KLH-sensitized Balb/c mice, KLH 10 μg/mL, 3 days, IL-4 in supernatant by ELISA; for IC50: Mus musculus, Lymphocyte, 72 h, read-out: IC50 (concentrations at which IL-4 yields were inhibited by 50%)
Experimental: A 4 mg/mL solution of KLH (Keyhole Limpet Hemocyanin; product of Pierce Chemical Company) and Freund complete adjuvant FCA (Bacto Adjuvant Complete Freund; product of DIFCO) were mixed and emulsified at a volume ratio of 1:1. The resulting emulsion was subcutaneously injected at 200 μL/head to the foreleg paws and hind leg paws of Balb/c mice (female, 8 to 12 weeks old), whereby the mice were sensitized. About 7 days later, axillary and popliteal lymph nodes were excised. After the lymph nodes were washed in PBS, they were loosened between two slide glasses in RPMI medium which had been prepared by adding kanamycin and β-mercapto-ethanol to “RPMI 1640 Medium” (product of BRL) such that their final concentrations became 100 μg/mL and 100 μM, respectively, whereby a suspension of lymphocytes was prepared. The lymphocyte suspension was centrifuged twice at 1,000 rpm for 5 minutes, followed by suspension in the RPMI medium added with 10% FCS. The lymphocytes were spread at 4×10^5 lymphocytes/well over 96-well plates. Individual compounds or essential oils, which had been prepared at varied concentrations with 10% FCS-added RMPI medium, were added within a final concentration range of from 0.01 to 100 μg/mL. Subsequent to incubation at 37° C. for about 30 minutes in the presence of 5% CO2, KLH was added to give a final concentration of 10 μg/mL. After incubation at 37° C. for 3 days in the presence of 5% CO2, IL-4 in each supernatant was quantitated by ELISA.
For the ELISA quantitation, “Mice IL-4 ELISA Kit” (product of Amersham Corp.) was used. Following a protocol attached to the kit, the quantitation was conducted using recombinant IL-4 as a standard substance. IL-4 production inhibition rates of the individual compounds at the varied concentrations were calculated [100-(IL-4 yield when the sample was added/IL-4 yield in a control added only with the culture medium)×100]. From the IL-4 production inhibition rates, IC50 values (concentrations at which IL-4 yields were inhibited by 50%) were determined.

[2] = test system: allergy to house dust mite antigen; experiment: Effects on allergy to house dust mite antigen (ear swelling); format: in vivo, Balb/c mice; conditions: for Swelling inhibition rate (%): 20 μL topically on ear, 24 h after challenge; for inhibitory effects for allergy to the house dust mite antigen (in words): concentrations of 0.1% and 1.0%, statistically significant at 1% or 5% significance level
Experimental: Tape stripping was applied 8 times with an adhesive cellophane tape (product of Nichiban Co., Ltd.) to shaved abdominal parts of Balb/c mice (female). The abdominal parts were coated with 50-μL portions of a house dust mite antigen, which had been obtained by dialyzing an allergen scratch extract “DANI” (product of Torii Pharmaceutical Co., Ltd.) and then concentrating the dialyzate ten-fold by ultrafiltration, so that the mice were sensitized. One, four, five and six days later, 20 μL portions of cedrol, cumin oil and cedarwood oil of concentrations shown in Table 2 (prepared by dissolving them in 70% ethanol solution) were topically applied onto one ears, respectively, and the same amount of the solvent control (70% ethanol solution) was applied at the others. Seven days after the sensitization, the mice were challenged on the dorsal ear lobe by subcutaneous injection of 10 μL of the same angiten solution. To measure ear swelling caused by nonspecific stimulation with the house dust mite antigen, 10-μL portions of the house dust mite antigen were subcutaneously injected to one ear lobes of unsensitized mice. Three and twenty hours after the stimulation, the ear lobes of the anesthetized mice were covered with pieces of paper towel soaked with purified water of 40° C., respectively. After that, 20 μL portions of the individual compounds were topically applied to one ears, respectively, while to the other, the same amount of the solvent control were applied. Twenty-four hours after stimulation, the thicknesses of the ears were measured by a thickness gauge, and differences from the thicknesses of the corresponding ears before the stimulation were recorded as ear swellings. Each ear swelling inhibition rate (%) was determined by the following formula: [ear swelling (solvent control)−ear swelling (sample)]/[ear swelling (solvent control)−ear swelling (nonspecific stimulation by the house dust mite antigen)]×100. Differences in swelling between the ear applied with the solvent control and the corresponding ears applied with the samples, respectively, were statistically analyzed by t-test, and any difference with significance level lower than 5% was considered statistically significant.

| Compound | IC50 (concentrations at which IL-4 yields were inhibited by 50%) [1] [µg/mL] | IC50 [1] [µg/mL] | also measured |
| --- | --- | --- | --- |
| CC(=O)C1=C(C)[C@@H]2C[C@@]3(C1)[C@H](C)CC[C@H]3C2(C)C [Acetylcedrene] | 1.60 |  |  |
| C[C@@H]1CC[C@H]2C(C)(C)[C@H]3C[C@@]12CC[C@@]3(C)O [Cedrol] |  | 3 | Swelling inhibition rate (%) ([2]; Concentration 0.01 W/V %): 8%; Swelling inhibition rate (%) ([2]; Concentration 0.10 W/V %): 14%; Swelling inhibition rate (%) ([2]; Concentration 1.00 W/V %): 13%; inhibitory effects for allergy to the house dust mite antigen (in words) [2]: marked effects |
| CC(C)=CCCC(C)=CCCC(C)=CCO [Farnesol] |  | 0.59 |  |
| CC(C)=CCCC(C)CCO (stereo not shown) [Citronellol] |  | 37.3 |  |
| Cedrenol | 3.34 |  |  |
| CC1(C)CCC[C@@]2(C)CC[C@](C)(O)CC=C12 [Widdrol] | 4.00 |  |  |
| CC(C)c1cccc(=O)c(O)c1 [Hinokitiol] |  | 0.1 |  |
| Thujopsenol | 3.60 |  |  |
| Epiglobulol | 1.14 |  |  |
| C[C@@H]1CC[C@@H]2[C@@H]1[C@H]1[C@@H](CC[C@@]2(C)O)C1(C)C [Globulol] |  | 1.08 | Swelling inhibition rate (%) ([2]; Concentration 0.01 W/V %): 11%; Swelling inhibition rate (%) ([2]; Concentration 0.10 W/V %): 19%; Swelling inhibition rate (%) ([2]; Concentration 1.00 W/V %): 26%; inhibitory effects for allergy to the house dust mite antigen (in words) [2]: marked effects |
| Santalol | 2.40 |  |  |
| CCOCC(O)COc1ccc(NC(=O)CC[S+](C)C)cc1 (stereo not shown) [Suplatast tosilate, reference compound] |  | 50 |  |
| C[C@H]1CC[C@@H](C(C)(C)O)CC2=C1CC[C@@H]2C [Guaiol] | 0.68 |  |  |
| C=CCc1ccc(O)c(OC)c1 [Eugenol] |  | 5.6 |  |
| CC1CCC(C(C)C)C(O)C1 (stereo not shown) [Menthol] |  | 19.6 |  |
| CC(=O)O[C@]1(C)CC[C@@]23C[C@@H]1C(C)(C)[C@@H]2CC[C@H]3C [Cedryl acetate] |  | 0.78 |  |
| C[C@H]1CC[C@@]2(O)C(C)(C)[C@@H]3CC[C@@]2(C)[C@H]1C3 [Patchouli alcohol] | 0.72 |  |  |

— patent publication US6495171B2, “Interleukin-4 production inhibitors” (Kao Corporation, priority 1999, dated 2002)
